The results in this text go back to ChEMBL document CHEMBL4840358, “Discovery of Modified Amidate (ProTide) Prodrugs of Tenofovir with Enhanced Antiviral Properties” (J Med Chem, 2021).

Test system in the first data set: not listed separately
Briefly: Cytotoxicity against in human MT4 cells after 5 days by XTT assay. Type of data set: cell-based. The conditions noted are these: time 5 day. (Tetrazolium dyes change colour on reduction, which living cells bring about.)
In the case of `CC(C)OC(=O)[C@H](C)N[P@@](=O)(CO[C@H](C)Cn1cnc2c(N)ncnc21)Oc1ccc(C[C@H](NC(=O)OCc2ccccc2)C(=O)OC2CCCCC2)cc1`, half-maximal cytotoxicity (CC50 at 120 h) was put at 14000 nM.
Same read-out and setting: in the case of `COC(=O)[C@H](Cc1ccc(O[P@@](=O)(CO[C@H](C)Cn2cnc3c(N)ncnc32)N[C@@H](C)C(=O)OC(C)C)cc1)N1CCCC1` it was 27000 nM; in that of `CCC(CC)COC(=O)[C@H](Cc1ccc(O[P@@](=O)(CO[C@H](C)Cn2cnc3c(N)ncnc32)N[C@@H](C)C(=O)OC(C)C)cc1)NC(=O)OCc1ccccc1`, 38000 nM; in that of `COC(=O)[C@H](Cc1ccc(O[P@@](=O)(CO[C@H](C)Cn2cnc3c(N)ncnc32)N[C@@H](C)C(=O)OC(C)C)cc1)N(C)C`, 38000 nM.
In turn, `COC(=O)[C@@H](N)Cc1ccc(O[P@@](=O)(CO[C@H](C)Cn2cnc3c(N)ncnc32)N[C@@H](C)C(=O)OC(C)C)cc1` showed a CC50 at 120 h of over 50000 nM.
`COCCOCCOCCOC(=O)[C@H](Cc1ccc(OP(=O)(CO[C@H](C)Cn2cnc3c(N)ncnc32)N[C@@H](C)C(=O)OC(C)C)cc1)NC(=O)OCc1ccccc1` (stereo not given in full): the CC50 at 120 h was over 50000 nM.
Take `COC(=O)[C@H](Cc1ccc(O[P@](=O)(CO[C@H](C)Cn2cnc3c(N)ncnc32)N[C@@H](C)C(=O)OC(C)C)cc1)NC(=O)c1ccccc1`: the CC50 at 120 h is over 50000 nM.
Same read-out and setting: under `CCCCCCOC(=O)[C@H](Cc1ccc(O[P@@](=O)(CO[C@H](C)Cn2cnc3c(N)ncnc32)N[C@@H](C)C(=O)OC(C)C)cc1)NC(=O)OCc1ccccc1` stands 13000 nM; under `CC(C)OC(=O)[C@H](C)N[P@](=O)(CO[C@H](C)Cn1cnc2c(N)ncnc21)Oc1ccc(C[C@@H](NC(=O)OCc2ccccc2)C(=O)OC2CCCC2)cc1`, 20000 nM; under `COC(=O)[C@@H](N)Cc1ccc(O[P@](=O)(CO[C@H](C)Cn2cnc3c(N)ncnc32)N[C@@H](C)C(=O)OC(C)C)cc1`, over 50000 nM.
Same read-out and setting: in the case of `CC(C)OC(=O)[C@H](C)NP(=O)(CO[C@H](C)Cn1cnc2c(N)ncnc21)Oc1ccc(C[C@H](NC(=O)OCc2ccccc2)C(=O)OCc2ccccc2)cc1` (stereo not given in full) it was 10000 nM; in that of `CCCCCCOC(=O)[C@H](Cc1ccc(O[P@](=O)(CO[C@H](C)Cn2cnc3c(N)ncnc32)N[C@@H](C)C(=O)OC(C)C)cc1)NC(=O)OCc1ccccc1`, 17000 nM.
Still for that read-out and setting: in the case of `CC(C)OC(=O)[C@H](C)NP(=O)(CO[C@H](C)Cn1cnc2c(N)ncnc21)Oc1ccc(C[C@H](NC(=O)OCc2ccccc2)C(=O)OC(C)(C)C)cc1` (stereo not given in full) it was 6600 nM.
`COC(=O)[C@H](Cc1ccc(O[P@](=O)(CO[C@H](C)Cn2cnc3c(N)ncnc32)N[C@@H](C)C(=O)OC(C)C)cc1)N1CCCC1` displayed a CC50 at 120 h of 24000 nM.
On to `CC(C)CCOC(=O)[C@H](Cc1ccc(O[P@](=O)(CO[C@H](C)Cn2cnc3c(N)ncnc32)N[C@@H](C)C(=O)OC(C)C)cc1)NC(=O)OCc1ccccc1`, for which it took 24000 nM to reach half-maximal cytotoxicity (CC50 at 120 h).
For the compound `CCCCCCCCOC(=O)[C@H](Cc1ccc(OP(=O)(CO[C@H](C)Cn2cnc3c(N)ncnc32)N[C@@H](C)C(=O)OC(C)C)cc1)NC(=O)OCc1ccccc1` (stereo not given in full), the midpoint of cytotoxicity, the CC50 at 120 h, lay at 27000 nM.
On the same count and under the same terms, in the case of `CC(C)OC(=O)[C@H](C)N[P@](=O)(CO[C@H](C)Cn1cnc2c(N)ncnc21)Oc1ccc(C[C@H](NC(=O)OCc2ccccc2)C(=O)OC2CCCCC2)cc1` it was 9100 nM.
Same read-out and setting: in the case of `CC(C)OC(=O)[C@H](C)N[P@@](=O)(CO[C@H](C)Cn1cnc2c(N)ncnc21)Oc1ccc(C[C@H](NC(=O)OCc2ccccc2)C(=O)OC(C)C)cc1` it was 13000 nM.
On the same count and under the same terms, in the case of `CCOC(=O)[C@H](Cc1ccc(O[P@](=O)(CO[C@H](C)Cn2cnc3c(N)ncnc32)N[C@@H](C)C(=O)OC(C)C)cc1)NC(=O)OCc1ccccc1` it was 13000 nM; in that of `CC(C)OC(=O)[C@H](C)N[P@@](=O)(CO[C@H](C)Cn1cnc2c(N)ncnc21)Oc1ccc(C[C@H](NC(=O)OCc2ccccc2)C(=O)NC2CCCC2)cc1`, 17000 nM.

A further data set relates to Human immunodeficiency virus 1. In words: Antiviral activity against HIV-1 infected in MT4 cells assessed as reduction in virus-induced cytopathic effect preincubated for 1 hr followed by viral infection and measured after 5 days by XTT assay. The conditions noted are these: Human immunodeficiency virus 1, MT4. The class given is functional, organism-based.
In the case of `CC(C)OC(=O)[C@H](C)N[P@@](=O)(CO[C@H](C)Cn1cnc2c(N)ncnc21)Oc1ccc(C[C@H](NC(=O)OCc2ccccc2)C(=O)OC2CCCCC2)cc1`, the EC50 is 21 nM.
In the case of `COC(=O)[C@H](Cc1ccc(O[P@@](=O)(CO[C@H](C)Cn2cnc3c(N)ncnc32)N[C@@H](C)C(=O)OC(C)C)cc1)N1CCCC1`, the EC50 was found to be 16 nM.
`CCC(CC)COC(=O)[C@H](Cc1ccc(O[P@@](=O)(CO[C@H](C)Cn2cnc3c(N)ncnc32)N[C@@H](C)C(=O)OC(C)C)cc1)NC(=O)OCc1ccccc1`: the EC50 turned out to be 50 nM.
Still for that read-out and setting: in the case of `COC(=O)[C@H](Cc1ccc(O[P@@](=O)(CO[C@H](C)Cn2cnc3c(N)ncnc32)N[C@@H](C)C(=O)OC(C)C)cc1)N(C)C` it was 48 nM; in that of `COC(=O)[C@@H](N)Cc1ccc(O[P@@](=O)(CO[C@H](C)Cn2cnc3c(N)ncnc32)N[C@@H](C)C(=O)OC(C)C)cc1`, 350 nM; in that of `COCCOCCOCCOC(=O)[C@H](Cc1ccc(OP(=O)(CO[C@H](C)Cn2cnc3c(N)ncnc32)N[C@@H](C)C(=O)OC(C)C)cc1)NC(=O)OCc1ccccc1` (stereo not given in full), 470 nM.
`COC(=O)[C@H](Cc1ccc(O[P@](=O)(CO[C@H](C)Cn2cnc3c(N)ncnc32)N[C@@H](C)C(=O)OC(C)C)cc1)NC(=O)c1ccccc1`: the EC50 amounted to 72 nM.
The same measure, in the same setting: in the case of `CCCCCCOC(=O)[C@H](Cc1ccc(O[P@@](=O)(CO[C@H](C)Cn2cnc3c(N)ncnc32)N[C@@H](C)C(=O)OC(C)C)cc1)NC(=O)OCc1ccccc1` it was 16 nM; in that of `CC(C)OC(=O)[C@H](C)N[P@](=O)(CO[C@H](C)Cn1cnc2c(N)ncnc21)Oc1ccc(C[C@@H](NC(=O)OCc2ccccc2)C(=O)OC2CCCC2)cc1`, 0.67 nM.
With `COC(=O)[C@@H](N)Cc1ccc(O[P@](=O)(CO[C@H](C)Cn2cnc3c(N)ncnc32)N[C@@H](C)C(=O)OC(C)C)cc1`, the EC50 worked out at 650 nM.
As to `CC(C)OC(=O)[C@H](C)NP(=O)(CO[C@H](C)Cn1cnc2c(N)ncnc21)Oc1ccc(C[C@H](NC(=O)OCc2ccccc2)C(=O)OCc2ccccc2)cc1` (stereo not given in full), the EC50 worked out at 9 nM.
For `CCCCCCOC(=O)[C@H](Cc1ccc(O[P@](=O)(CO[C@H](C)Cn2cnc3c(N)ncnc32)N[C@@H](C)C(=O)OC(C)C)cc1)NC(=O)OCc1ccccc1`, the EC50 is 23 nM.
The same measure, in the same setting: in the case of `CC(C)OC(=O)[C@H](C)NP(=O)(CO[C@H](C)Cn1cnc2c(N)ncnc21)Oc1ccc(C[C@H](NC(=O)OCc2ccccc2)C(=O)OC(C)(C)C)cc1` (stereo not given in full) it was 13 nM; in that of `COC(=O)[C@H](Cc1ccc(O[P@](=O)(CO[C@H](C)Cn2cnc3c(N)ncnc32)N[C@@H](C)C(=O)OC(C)C)cc1)N1CCCC1`, 11 nM.
Still for that read-out and setting: under `CC(C)CCOC(=O)[C@H](Cc1ccc(O[P@](=O)(CO[C@H](C)Cn2cnc3c(N)ncnc32)N[C@@H](C)C(=O)OC(C)C)cc1)NC(=O)OCc1ccccc1` stands 11 nM.
Still for that read-out and setting: under `CCCCCCCCOC(=O)[C@H](Cc1ccc(OP(=O)(CO[C@H](C)Cn2cnc3c(N)ncnc32)N[C@@H](C)C(=O)OC(C)C)cc1)NC(=O)OCc1ccccc1` (stereo not given in full) stands 38 nM; under `CC(C)OC(=O)[C@H](C)N[P@](=O)(CO[C@H](C)Cn1cnc2c(N)ncnc21)Oc1ccc(C[C@H](NC(=O)OCc2ccccc2)C(=O)OC2CCCCC2)cc1`, 8.4 nM; under `CC(C)OC(=O)[C@H](C)N[P@@](=O)(CO[C@H](C)Cn1cnc2c(N)ncnc21)Oc1ccc(C[C@H](NC(=O)OCc2ccccc2)C(=O)OC(C)C)cc1`, 27 nM.
As to `CCOC(=O)[C@H](Cc1ccc(O[P@](=O)(CO[C@H](C)Cn2cnc3c(N)ncnc32)N[C@@H](C)C(=O)OC(C)C)cc1)NC(=O)OCc1ccccc1`, the EC50 is 20 nM.
The same measure, in the same setting: in the case of `CC(C)OC(=O)[C@H](C)N[P@@](=O)(CO[C@H](C)Cn1cnc2c(N)ncnc21)Oc1ccc(C[C@H](NC(=O)OCc2ccccc2)C(=O)NC2CCCC2)cc1` it was 10 nM.

What is called CC50 is the concentration at which the toxic effect on the cells reaches its halfway point. What is called EC50 is the midpoint of the concentration-response curve.
